Results as given in publication PMC9186351, “Discovery of N-quinazolinone-4-hydroxy-2-quinolone-3-carboxamides as DNA gyrase B-targeted antibacterial agents” (Journal of Enzyme Inhibition and Medicinal Chemistry, 2022).
In brackets after ≈: the same amount, converted by molar mass. Several values for one entry are separate records, joined by “and”; a condition that tells them apart may be missing. Identical values can stand only once. Like-named read-outs stand apart in the source and are kept apart here.

What was measured:
[1] = target: T1, S. aureus GyrB (Staphylococcus aureus, UniProt P0A0K8); assay: S. aureus GyrB (Gyrase ATPase) inhibition assay, ADP-Glo; assay type: biochemical; conditions: for IC50: IC50 for GyrB (µM, mean ± SD), S. aureus Gyrase ATPase inhibition, average of duplicates; for inhibition at 10 µM: read-out: GyrB inhibition rate (%) at 10 μM
T1 construct: purchased Inspiralis Ltd., Norwich, UK
Description: The IC50 values for S. aureus GyrB were determined according to our previously reported protocol.[16] For this assay, the reaction mixture (10 μL) consisted of 5 nM S. aureus Gyrase (Inspiralis Ltd., Norwich, UK), assay buffer [40 mM HEPES-KOH (pH 7.6), 10 mM magnesium acetate, 10 mM dithiothreitol, 50 g/L BSA, and 500 mM potassium glutamate], the test compound (0.01–100 μM), 1% DMSO, 10 nM linear pBR322 DNA, and […]. The target compound was dissolved in DMSO (10 mM). A series of dilutions (0.1–1000 μM) were prepared from the stock solution with the assay buffer and DMSO. The dilutions (1 μL) were respectively added to the PCR tubes along with the buffer (7 μL), the linear pBR322 DNA (0.5 μL), S. aureus Gyrase (0.5 μL), and ATP (1 μL). The PCR tubes were sealed and incubated at 37 °C for 30 min. The ADP-Glo reagent (40 μL) was added to stop the reaction and use up the remaining ATP.
The detection reagent (50 μL) was then added and mixed. After 5 min, the mixture in each PCR tube was put in the well of a 96-well plate and its luminescence was measured by the BioTek Synergy 2 microplate reader. The activity values (%) of S. aureus Gyrase treated by the test compound at different concentrations were determined based on the luminescence. GraphPad Prism version 5 software (GraphPad Software Inc., La Jolla, CA) was used to calculate the IC50 values.

[2] = tested on: methicillin-sensitive S. aureus (MSSA); assay: MIC by broth microdilution, MSSA isolates; assay type: cell-based; conditions: Staphylococcus aureus
Description: All of the bacterial strains used in this study were obtained from the Collection Centre of Pathogen Microorganism of Chinese Academy of Medical Sciences (CAMS-CCPM-A) in China. All of the isolates were stored at −80 °C and streaked on tryptic soy agar (TSA) plates to obtain overnight cultures. The MICs of the test compounds were determined by the broth microdilution method in accordance with the Clinical and Laboratory Standards Institute (CLSI) guidelines.[20] Cation-adjusted Mueller-Hinton broth (CAMHB) was used as the growth medium for MIC assays. Briefly, 100 μL of serially diluted compounds (starting concentrations were 64 μg/mL) in CAMH broth were added to the wells of 96-well microtiter plates. Then, 10 µL of 5 × 10^6 CFU/mL bacterial culture was added to each well. […] The MIC was defined as the lowest concentration of a compound that inhibited visual growth of the bacteria. Vancomycin was set as the positive control for this assay.

[3] = ATCC 29213 / BAA-1708 / BAA-976 / MSSA, ATCC 29213, 15, 18-3, BAA976, BAA1708, span over isolates, read-out: MIC over the five MSSA isolates
[4] = ATCC 29213 / MSSA, MSSA ATCC 29213, read-out: MIC
[5] = BAA-976 / MSSA, MSSA BAA976, read-out: MIC
[6] = BAA-1708 / MSSA, MSSA BAA1708, read-out: MIC

T1 sequence (P0A0K8 whole entry): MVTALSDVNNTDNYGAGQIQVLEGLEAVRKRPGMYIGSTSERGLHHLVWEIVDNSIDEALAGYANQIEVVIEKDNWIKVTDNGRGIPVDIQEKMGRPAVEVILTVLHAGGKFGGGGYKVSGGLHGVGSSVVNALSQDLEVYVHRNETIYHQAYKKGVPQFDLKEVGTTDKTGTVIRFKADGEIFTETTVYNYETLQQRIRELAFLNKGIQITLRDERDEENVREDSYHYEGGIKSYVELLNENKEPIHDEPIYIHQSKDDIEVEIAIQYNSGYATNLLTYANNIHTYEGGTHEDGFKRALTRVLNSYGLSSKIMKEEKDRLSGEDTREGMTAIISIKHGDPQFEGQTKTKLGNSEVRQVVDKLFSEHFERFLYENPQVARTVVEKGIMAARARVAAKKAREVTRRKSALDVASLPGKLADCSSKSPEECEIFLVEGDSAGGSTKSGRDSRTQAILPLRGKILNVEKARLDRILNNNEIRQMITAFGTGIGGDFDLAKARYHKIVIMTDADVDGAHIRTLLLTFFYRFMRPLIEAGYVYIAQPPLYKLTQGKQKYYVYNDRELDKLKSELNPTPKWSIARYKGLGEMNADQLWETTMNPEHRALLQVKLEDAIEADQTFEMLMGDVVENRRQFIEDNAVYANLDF
T1 sequence (P20831 whole entry, further chain): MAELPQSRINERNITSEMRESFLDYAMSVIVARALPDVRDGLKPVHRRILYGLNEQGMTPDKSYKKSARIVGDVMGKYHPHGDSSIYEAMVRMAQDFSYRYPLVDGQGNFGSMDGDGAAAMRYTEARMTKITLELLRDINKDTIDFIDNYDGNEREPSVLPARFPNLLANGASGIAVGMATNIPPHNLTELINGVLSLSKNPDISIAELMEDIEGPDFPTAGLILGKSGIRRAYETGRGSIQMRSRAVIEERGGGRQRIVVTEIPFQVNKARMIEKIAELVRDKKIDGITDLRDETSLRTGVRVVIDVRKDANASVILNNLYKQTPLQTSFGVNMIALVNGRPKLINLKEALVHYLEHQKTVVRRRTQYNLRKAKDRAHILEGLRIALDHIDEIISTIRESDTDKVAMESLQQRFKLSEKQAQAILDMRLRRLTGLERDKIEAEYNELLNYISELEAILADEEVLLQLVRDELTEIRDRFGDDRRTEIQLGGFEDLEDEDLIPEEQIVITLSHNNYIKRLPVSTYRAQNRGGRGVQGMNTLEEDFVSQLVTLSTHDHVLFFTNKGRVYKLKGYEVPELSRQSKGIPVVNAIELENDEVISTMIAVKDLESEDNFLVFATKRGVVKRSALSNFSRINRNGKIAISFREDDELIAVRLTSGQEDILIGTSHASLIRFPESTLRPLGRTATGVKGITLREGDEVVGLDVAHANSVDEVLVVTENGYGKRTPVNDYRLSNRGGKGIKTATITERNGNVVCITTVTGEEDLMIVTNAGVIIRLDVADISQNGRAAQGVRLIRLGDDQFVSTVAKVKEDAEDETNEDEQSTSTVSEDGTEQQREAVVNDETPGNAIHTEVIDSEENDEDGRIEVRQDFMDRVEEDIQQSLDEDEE

Row | SMILES | melting point [°C] | IC50 [1] | inhibition at 10 µM [1] [%] | other results
1 | CCCCCc1nc2c(Cl)cccc2c(=O)n1NC(=O)c1c(O)c2ccccc2n(CC)c1=O [f10, N-(8-chloro-4-oxo-2-pentylquinazolin-3(4H)-yl)-1-ethyl-4-hydroxy-2-oxo-1,2-dihydroquinoline-3-carboxamide] | 158.6 to 160.4 | 9.7 ± 2.1 µM |  | 
2 | CCCCCc1nc2c(OC)cccc2c(=O)n1NC(=O)c1c(O)c2ccccc2n(CC)c1=O [f12, N-(8-methoxy-4-oxo-2-pentylquinazolin-3(4H)-yl)-1-ethyl-4-hydroxy-2-oxo-1,2-dihydroquinoline-3-carboxamide] | 178.3 to 180.1 | 0.878 µM and 0.88 µM |  | 
3 | CCCCCC(=O)NNC(=O)c1c(O)c2ccccc2n(CCC)c1=O [AG-690/11232780] |  |  | 3 | 
4 | CCn1c(=O)c(C(=O)NNC(=O)c2ccccc2Br)c(O)c2ccccc21 [AG-690/11765298] |  |  | 45 | 
5 | CCCCCc1nc2cc(C)ccc2c(=O)n1NC(=O)c1c(O)c2ccccc2n(CC)c1=O [f7, N-(7-methyl-4-oxo-2-pentylquinazolin-3(4H)-yl)-1-ethyl-4-hydroxy-2-oxo-1,2-dihydroquinoline-3-carboxamide] | 167.2 to 168.4 | 24.4 ± 4.5 µM |  | 
6 | CCCCCc1nc2ccc(OC)cc2c(=O)n1NC(=O)c1c(O)c2ccccc2n(CC)c1=O [f4, N-(6-methoxy-4-oxo-2-pentylquinazolin-3(4H)-yl)-1-ethyl-4-hydroxy-2-oxo-1,2-dihydroquinoline-3-carboxamide] | 98.7 to 99.9 | 0.31 ± 0.07 µM |  | MIC [2, 3]: ≥ 32 µg/mL; MIC [2, 4]: > 64 µg/mL; MIC [2, 5]: 32 µg/mL (≈ 67.2 µM); MIC [2, 6]: > 64 µg/mL; MIC ([2]; MSSA, MSSA 15, read-out: MIC): 64 µg/mL (≈ 134 µM); MIC ([2]; MSSA, MSSA 18-3, read-out: MIC): 64 µg/mL (≈ 134 µM)
7 | CCCCc1nc2ccccc2c(=O)n1NC(=O)c1c(O)c2ccccc2n(CC)c1=O [f16, N-(2-butyl-4-oxoquinazolin-3(4H)-yl)-1-ethyl-4-hydroxy-2-oxo-1,2-dihydroquinoline-3-carboxamide] | 139.8 to 140.5 | 2.34 ± 0.34 µM |  | 
8 | CCn1c(=O)c(C(=O)Nn2c(C)nc3ccccc3c2=O)c(O)c2ccccc21 [f13, N-(2-methyl-4-oxoquinazolin-3(4H)-yl)-1-ethyl-4-hydroxy-2-oxo-1,2-dihydroquinoline-3-carboxamide] |  | 1.64 ± 0.23 µM |  | 
9 | O=C(Nc1ccccc1-c1ccccc1)c1c(O)c2cccc3c2n(c1=O)CCC3 [AE-641/00629040] |  |  | 11 | 
10 | CCCCCc1nc2cc(Cl)ccc2c(=O)n1NC(=O)c1c(O)c2ccccc2n(CC)c1=O [f6, N-(7-chloro-4-oxo-2-pentylquinazolin-3(4H)-yl)-1-ethyl-4-hydroxy-2-oxo-1,2-dihydroquinoline-3-carboxamide] | 128.4 to 130.2 | 0.83 ± 0.01 µM |  | 
11 | CCCc1nc2ccccc2c(=O)n1NC(=O)c1c(O)c2ccccc2n(CC)c1=O [f15, N-(4-oxo-2-propylquinazolin-3(4H)-yl)-1-ethyl-4-hydroxy-2-oxo-1,2-dihydroquinoline-3-carboxamide] | 158.6 to 160.7 | 11.9 ± 2.3 µM |  | 
12 | CCn1c(=O)c(C(=O)NNS(=O)(=O)c2ccc(Br)cc2)c(O)c2ccccc21 [AG-690/11765340] |  |  | 10 | 
13 | CCCCCc1nc2ccc(C(F)(F)F)cc2c(=O)n1NC(=O)c1c(O)c2ccccc2n(CC)c1=O [f5, N-(4-oxo-2-pentyl-6-(trifluoromethyl)quinazolin-3(4H)-yl)-1-ethyl-4-hydroxy-2-oxo-1,2-dihydroquinoline-3-carboxamide] | 128.3 to 130.2 | 0.81 ± 0.17 µM |  | 
14 | CCCCCCn1c(=O)c(C(=O)Nc2ccccc2Br)c(O)c2ccccc21 [AG-690/11232728] |  |  | 12 | 
15 | CCCCCc1nc2ccc(Cl)cc2c(=O)n1NC(=O)c1c(O)c2ccccc2n(CC)c1=O [f2, N-(6-chloro-4-oxo-2-pentylquinazolin-3(4H)-yl)-1-ethyl-4-hydroxy-2-oxo-1,2-dihydroquinoline-3-carboxamide] | 141.5 to 143.1 | 1.58 ± 0.06 µM |  | 
16 | Cc1noc(NC(=O)c2c(O)c3cccc4c3n(c2=O)CCC4)c1C [AE-641/00628057] |  |  | 7 | 
17 | CCCCCCn1c(=O)c(C(=O)Nc2nc(C)cs2)c(O)c2ccccc21 [AG-690/36956124] |  |  | 10 | 
18 | C=CCn1c(=O)c(C(=O)NNC(=O)Cc2ccncc2)c(O)c2ccccc21 [AG-690/36469055] |  |  | 15 | 
19 | CCCCCc1nc2cc(OC)ccc2c(=O)n1NC(=O)c1c(O)c2ccccc2n(CC)c1=O [f8, N-(7-methoxy-4-oxo-2-pentylquinazolin-3(4H)-yl)-1-ethyl-4-hydroxy-2-oxo-1,2-dihydroquinoline-3-carboxamide] | 146.8 to 147.6 | 7.9 ± 0.1 µM |  | 
20 | CCCCCc1nc2cc(OC)c(OC)cc2c(=O)n1NC(=O)c1c(O)c2ccccc2n(CC)c1=O [f9, N-(6,7-dimethoxy-4-oxo-2-pentylquinazolin-3(4H)-yl)-1-ethyl-4-hydroxy-2-oxo-1,2-dihydroquinoline-3-carboxamide] | 172.4 to 174.1 | 1.06 ± 0.13 µM |  | 
21 | CCCCCc1nc2ccc(C)cc2c(=O)n1NC(=O)c1c(O)c2ccccc2n(CC)c1=O [f3, N-(6-methyl-4-oxo-2-pentylquinazolin-3(4H)-yl)-1-ethyl-4-hydroxy-2-oxo-1,2-dihydroquinoline-3-carboxamide] | 160.6 to 162.3 | 0.83 ± 0.11 µM |  | 
22 | CCCCCc1nc2c(C)cccc2c(=O)n1NC(=O)c1c(O)c2ccccc2n(CC)c1=O [f11, N-(8-methyl-4-oxo-2-pentylquinazolin-3(4H)-yl)-1-ethyl-4-hydroxy-2-oxo-1,2-dihydroquinoline-3-carboxamide] | 142.7 to 144.3 | 0.77 ± 0.02 µM |  | 
23 | CCCCCCn1c(=O)c(C(=O)Nc2ccc(Cl)cn2)c(O)c2ccccc21 [AG-690/11557825] |  |  | 6 | 
24 | CCc1nc2ccccc2c(=O)n1NC(=O)c1c(O)c2ccccc2n(CC)c1=O [f14, N-(2-ethyl-4-oxoquinazolin-3(4H)-yl)-1-ethyl-4-hydroxy-2-oxo-1,2-dihydroquinoline-3-carboxamide] |  | 0.28 ± 0.04 µM |  | MIC [2, 3]: ≥ 32 µg/mL; MIC [2, 4]: > 64 µg/mL; MIC [2, 5]: 32 µg/mL (≈ 79.1 µM); MIC [2, 6]: 64 µg/mL (≈ 158 µM); MIC ([2]; MSSA, MSSA 15, read-out: MIC): 64 µg/mL (≈ 158 µM); MIC ([2]; MSSA, MSSA 18-3, read-out: MIC): > 64 µg/mL
25 | CCCCCNC(=O)c1c(O)c2ccccc2n(C)c1=O [AG-690/11232717] |  |  | 13 | 
26 | CCCn1c(=O)c(C(=O)NNC(=O)Cc2ccccc2)c(O)c2ccccc21 [AG- 690/36956135] |  |  | 6 | 
